Measurements taken from patent publication US7446117B2, “Cox-2 inhibiting pyridine derivatives” (Glaxo Group Limited, priority 2002, dated 2008).

Biological target: T1, microsomal h-COX2 (Homo sapiens, UniProt P35354)
T1 construct: made in house; host or cells: baculovirus infected SF9 cells (microsomal preparation)
T1 sequence (P35354 18-604): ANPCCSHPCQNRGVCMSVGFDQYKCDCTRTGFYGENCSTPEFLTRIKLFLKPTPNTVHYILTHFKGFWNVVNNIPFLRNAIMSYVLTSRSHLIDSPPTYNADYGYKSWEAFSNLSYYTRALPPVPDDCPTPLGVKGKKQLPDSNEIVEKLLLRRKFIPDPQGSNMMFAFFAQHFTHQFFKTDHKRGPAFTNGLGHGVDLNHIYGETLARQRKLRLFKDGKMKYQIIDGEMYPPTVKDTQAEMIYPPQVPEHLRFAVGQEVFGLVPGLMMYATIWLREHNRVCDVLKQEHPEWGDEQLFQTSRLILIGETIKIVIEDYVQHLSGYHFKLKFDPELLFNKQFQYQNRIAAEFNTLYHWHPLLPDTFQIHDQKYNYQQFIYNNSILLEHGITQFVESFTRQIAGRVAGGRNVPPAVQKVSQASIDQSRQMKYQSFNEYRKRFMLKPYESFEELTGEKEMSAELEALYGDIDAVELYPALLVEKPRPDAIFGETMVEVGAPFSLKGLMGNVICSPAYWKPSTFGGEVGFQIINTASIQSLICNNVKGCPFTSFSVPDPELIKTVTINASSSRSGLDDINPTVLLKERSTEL
Test: Microsomal assay: inhibitory activity against microsomal h-COX2
Format: biochemical
Settings: microsomal preparation from baculovirus infected SF9 cells; 1 hour incubation with compound; 0.1 μM arachidonic acid, 10 minutes; PGE2 by EIA; read-out: IC50 values for inhibition of COX-2
Experimental: Biological Data Microsomal Assay
Inhibitory activity against microsomal h-COX2 was assessed against a microsomal preparation from baculovirus infected SF9 cells. An aliquot of microsomal preparation was thawed slowly on ice and a 1/40,000 dilution prepared from it into the assay buffer (sterile water, degassed with argon containing 100 mM HEPES (pH 7.4), 10 mM EDTA (pH7.4), 1 mM phenol, 1 mM reduced glutathione, 20 mg/ml gelatin and 0.001 mM Hematin). Once diluted the enzyme solution was then sonicated for 5 seconds (Branson sonicator, setting 4, 1 cm tip) to ensure a homogeneous suspension. 155 μl enzyme solution was then added to each well of a 96-well microtitre plate containing either 5 μl test compound (40× required test concentration) or 5 μl DMSO for controls. Plates were then mixed and incubated at room temperature for 1 hour. Following the incubation period, 40 μl of 0.5 μM arachidonic acid was added to each well to give a final concentration of 0.1 μM. Plates were then mixed and incubated for exactly 10 minutes (room temperature) prior to addition of 25 μl 1M HCl (hydrochloric acid) to each well to stop the reaction. 25 μl of 1M NaOH (sodium hydroxide) was then added to each well to neutralise the solution prior to determination of PGE2 levels by enzyme immunoassay (EIA).

Row | Compound | IC50
1 | Cc1cc(NCc2cnn(C)c2)nc(-c2ccc(S(C)(=O)=O)cc2)c1 [Example 83, N-[(1-methyl-1H-pyrazol-4-yl)methyl]-4-methyl-6-[4-(methylsulfonyl)phenyl]pyridine-2-amine] | ≤ 500 nM
2 | CCc1cc(NCc2ncc[nH]2)nc(-c2ccc(S(C)(=O)=O)cc2)c1 [Example 84] | ≤ 500 nM
3 | Cc1cc(OCc2cc(C)n[nH]2)nc(-c2ccc(S(C)(=O)=O)cc2)c1 [Example 85] | ≤ 500 nM
4 | Cc1cc(OCc2ccnn2C)nc(-c2ccc(S(C)(=O)=O)cc2)c1 [Example 86] | ≤ 500 nM
5 | Cc1cc(NCc2ncnn2C)nc(-c2ccc(S(C)(=O)=O)cc2)c1 [Example 87] | ≤ 500 nM
6 | Cc1cc(OCc2cc(C)on2)nc(-c2ccc(S(C)(=O)=O)cc2)c1 [Example 88] | ≤ 500 nM
7 | CCc1cc(NC2CCOCC2)nc(-c2ccc(S(C)(=O)=O)cc2)c1 [Example 89, 4-Ethyl-6-[4-(methylsulfonyl)phenyl]-N-(tetrahydro-2H-pyran-4-yl)pyridine-2-amine] | ≤ 500 nM
8 | CS(=O)(=O)c1ccc(-c2cc(CF)cc(NC3CCCCC3)n2)cc1 [Example 92] | ≤ 500 nM
9 | CCc1cc(NCc2ccccc2)nc(-c2ccc(S(C)(=O)=O)cc2)c1 [Example 93] | ≤ 500 nM
10 | Cc1cc(N[C@@H](C)c2ccccc2)nc(-c2ccc(S(C)(=O)=O)cc2)c1 [Example 94] | ≤ 500 nM
11 | Cc1cc(NCc2ccccc2C)nc(-c2ccc(S(C)(=O)=O)cc2)c1 [Example 95] | ≤ 500 nM
12 | CCc1cc(OCc2ccccc2)nc(-c2ccc(S(C)(=O)=O)cc2)c1 [Example 96] | ≤ 500 nM
13 | Cc1cc(NCc2ccc(C)nc2)nc(-c2ccc(S(C)(=O)=O)cc2)c1 [Example 98] | ≤ 500 nM
14 | CCc1cc(Nc2ccc(C)nc2)nc(-c2ccc(S(C)(=O)=O)cc2)c1 [Example 99] | ≤ 500 nM
15 | CCc1cc(OCc2cccnc2)nc(-c2ccc(S(C)(=O)=O)cc2)c1 [Example 101] | ≤ 500 nM
16 | CCc1cc(NCc2cnccn2)nc(-c2ccc(S(C)(=O)=O)cc2)c1 [Example 103] | ≤ 500 nM
17 | CS(=O)(=O)c1ccc(-c2cc(CF)cc(NCc3ccccc3)n2)cc1 [Example 104] | ≤ 500 nM
18 | CCc1cc(Nc2ccc(F)cc2)nc(-c2ccc(S(C)(=O)=O)cc2)c1 [Example 105] | ≤ 500 nM
19 | CCc1cc(NCc2nccn2C)nc(-c2ccc(S(C)(=O)=O)cc2)c1 [Example 108] | ≤ 500 nM
20 | CCc1cc(NCc2[nH]cnc2C)nc(-c2ccc(S(C)(=O)=O)cc2)c1 [Example 109] | ≤ 500 nM

Row | Compound | IC50
21 | Cc1cc(-c2ccc(S(C)(=O)=O)cc2)nc(N(C)Cc2nccn2C)c1 [Example 110] | ≤ 500 nM
22 | CCn1ccnc1CNc1cc(C)cc(-c2ccc(S(C)(=O)=O)cc2)n1 [Example 112] | ≤ 500 nM
23 | Cc1cc(NCc2cn(C)nc2C)nc(-c2ccc(S(C)(=O)=O)cc2)c1 [Example 113] | ≤ 500 nM
24 | Cc1cc(NCc2cnn(C)c2C)nc(-c2ccc(S(C)(=O)=O)cc2)c1 [Example 114] | ≤ 500 nM
25 | CCc1cc(NCc2cnn(C)c2)nc(-c2ccc(S(C)(=O)=O)cc2)c1 [Example 115] | ≤ 500 nM
26 | CCc1cc(OCc2ccnn2C)nc(-c2ccc(S(C)(=O)=O)cc2)c1 [Example 116] | ≤ 500 nM
27 | CCc1cc(NCc2cccs2)nc(-c2ccc(S(C)(=O)=O)cc2)c1 [Example 120] | ≤ 500 nM
28 | Cc1cc(NCc2cc(C)ns2)nc(-c2ccc(S(C)(=O)=O)cc2)c1 [Example 123] | ≤ 500 nM
29 | Cc1cc(NCc2nc(C)cs2)nc(-c2ccc(S(C)(=O)=O)cc2)c1 [Example 124] | ≤ 500 nM
30 | Cc1cc(NCc2csnc2C)nc(-c2ccc(S(C)(=O)=O)cc2)c1 [Example 125] | ≤ 500 nM
31 | Cc1cc(NCc2cnn(CF)c2)nc(-c2ccc(S(C)(=O)=O)cc2)c1 [Example 126] | ≤ 500 nM
32 | CCN(Cc1ccccc1)c1cc(C)cc(-c2ccc(S(C)(=O)=O)cc2)n1 [Example 128] | ≤ 500 nM
33 | CCc1cc(NCc2ccc(C)cc2)nc(-c2ccc(S(C)(=O)=O)cc2)c1 [Example 129] | ≤ 500 nM
34 | Cc1cc(-c2ccc(S(C)(=O)=O)cc2)nc(NCc2cnn(C)c2)c1C#N [Example 131] | ≤ 500 nM
35 | CCc1cc(OCc2cccnc2C)nc(-c2ccc(S(C)(=O)=O)cc2)c1 [Example 133] | ≤ 500 nM
36 | CCc1cc(OCc2ccc(C)nc2)nc(-c2ccc(S(C)(=O)=O)cc2)c1 [Example 134] | ≤ 500 nM
37 | CCc1cc(OCc2cccc(C)n2)nc(-c2ccc(S(C)(=O)=O)cc2)c1 [Example 135] | ≤ 500 nM
38 | CCc1cc(NCc2cnn(C)c2C)nc(-c2ccc(S(C)(=O)=O)cc2)c1 [Example 139] | ≤ 500 nM
39 | CCc1cc(NCc2nc(C)cs2)nc(-c2ccc(S(C)(=O)=O)cc2)c1 [Example 142] | ≤ 500 nM
40 | CCc1cc(-c2ccc(S(C)(=O)=O)cc2)nc(NCc2cnn(C)c2)c1F [Example 143] | ≤ 500 nM

Row | Compound | IC50
41 | CCc1cc(NCc2cnn(CF)c2)nc(-c2ccc(S(C)(=O)=O)cc2)c1 [Example 144] | ≤ 500 nM
42 | Cc1cc(-c2ccc(S(C)(=O)=O)cc2)nc(NCc2cnn(C)c2)c1Cl [Example 147] | ≤ 500 nM
43 | CCc1cc(-c2ccc(S(C)(=O)=O)cc2)nc(NCc2ccccc2)c1C#N [Example 148] | ≤ 500 nM
44 | Cc1ccc(COc2nc(-c3ccc(S(C)(=O)=O)cc3)cc(C)c2C#N)cn1 [Example 149] | ≤ 500 nM
45 | CS(=O)(=O)c1ccc(-c2cc(C(F)(F)F)cc(Oc3cccnc3)n2)cc1 [Example 150] | ≤ 500 nM
46 | CC(C)(C)c1cc(NCc2ccccc2)nc(-c2ccc(S(C)(=O)=O)cc2)c1 [Example 151] | ≤ 500 nM
47 | CS(=O)(=O)c1ccc(-c2cc(C(F)(F)F)cc(NCc3ncc[nH]3)n2)cc1 [Example 153] | ≤ 500 nM
48 | CCOc1ccc(Nc2cc(CC)cc(-c3ccc(S(C)(=O)=O)cc3)n2)cc1 [Example 154] | ≤ 500 nM
49 | Cc1cc(OCc2ccc(C)nc2)nc(-c2ccc(S(C)(=O)=O)cc2)c1 [Example 158] | ≤ 500 nM
50 | Cc1ncccc1Nc1cc(C(F)(F)F)cc(-c2ccc(S(C)(=O)=O)cc2)n1 [Example 160] | ≤ 500 nM
51 | Cc1cccc(Nc2cc(C(F)(F)F)cc(-c3ccc(S(C)(=O)=O)cc3)n2)n1 [Example 162] | ≤ 500 nM
52 | Cc1ccc(Nc2cc(C(F)(F)F)cc(-c3ccc(S(C)(=O)=O)cc3)n2)cn1 [Example 163] | ≤ 500 nM
53 | CS(=O)(=O)c1ccc(-c2cc(C(F)(F)F)cc(OCc3ccccn3)n2)cc1 [Example 164, 2-[4-(methylsulfonyl)phenyl]-6-[(2-pyridinylmethyl)oxy]-4-(trifluoromethyl)pyridine] | ≤ 500 nM
54 | Cc1ncccc1Oc1cc(C(F)(F)F)cc(-c2ccc(S(C)(=O)=O)cc2)n1 [Example 165] | ≤ 500 nM
55 | CS(=O)(=O)c1ccc(-c2cc(C(F)(F)F)cc(OCc3cccnc3)n2)cc1 [Example 166] | ≤ 500 nM
56 | Cc1ccc(Oc2cc(C(F)(F)F)cc(-c3ccc(S(C)(=O)=O)cc3)n2)cn1 [Example 167] | ≤ 500 nM
57 | CS(=O)(=O)c1ccc(-c2cc(C(F)(F)F)cc(NCc3cnccn3)n2)cc1 [Example 168] | ≤ 500 nM
58 | CS(=O)(=O)c1ccc(-c2cc(C(F)(F)F)cc(Nc3ccc(F)cc3)n2)cc1 [Example 169] | ≤ 500 nM
59 | CN(Cc1ccco1)c1cc(C(F)(F)F)cc(-c2ccc(S(C)(=O)=O)cc2)n1 [Example 170] | ≤ 500 nM
60 | Cn1cc(CNc2cc(C(F)(F)F)cc(-c3ccc(S(C)(=O)=O)cc3)n2)cn1 [Example 171] | ≤ 500 nM
